What was measured:
[1] = target: T1, human soluble guanylate cyclase alpha 1 and beta 1 subunits (sGC) (Homo sapiens, UniProt Q02108+Q02153); assay: sGC cellular activator assay (cGMP, HTRF); assay type: cell-based; conditions: CHO cells stably expressing human sGC alpha 1/beta 1, preincubated with 40 microM ODQ; cGMP readout; assay run with and without 50% human serum, Table 2 does not say which
T1 construct: expressed in transfected cells; host or cells: Chinese hamster ovary (CHO) cells, stably transfected
T1 sequence (Q02108 1-690): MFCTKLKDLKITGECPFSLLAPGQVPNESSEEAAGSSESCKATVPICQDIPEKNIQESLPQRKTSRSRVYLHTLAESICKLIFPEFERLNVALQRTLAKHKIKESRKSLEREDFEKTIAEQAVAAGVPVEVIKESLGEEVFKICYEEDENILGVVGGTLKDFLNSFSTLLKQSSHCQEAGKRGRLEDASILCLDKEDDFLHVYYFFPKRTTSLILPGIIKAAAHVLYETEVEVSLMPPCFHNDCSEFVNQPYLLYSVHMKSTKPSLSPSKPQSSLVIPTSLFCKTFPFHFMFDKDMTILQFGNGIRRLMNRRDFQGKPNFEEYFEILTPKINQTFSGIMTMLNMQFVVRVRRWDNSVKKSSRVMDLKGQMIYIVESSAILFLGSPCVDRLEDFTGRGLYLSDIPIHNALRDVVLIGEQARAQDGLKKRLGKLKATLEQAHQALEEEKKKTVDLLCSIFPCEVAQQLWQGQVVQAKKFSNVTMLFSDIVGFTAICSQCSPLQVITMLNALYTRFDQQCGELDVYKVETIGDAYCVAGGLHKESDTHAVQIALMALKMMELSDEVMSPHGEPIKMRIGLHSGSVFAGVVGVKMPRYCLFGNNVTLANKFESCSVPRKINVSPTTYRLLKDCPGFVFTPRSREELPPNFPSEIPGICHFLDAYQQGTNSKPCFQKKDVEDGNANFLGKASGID
T1 sequence (Q02153 1-619): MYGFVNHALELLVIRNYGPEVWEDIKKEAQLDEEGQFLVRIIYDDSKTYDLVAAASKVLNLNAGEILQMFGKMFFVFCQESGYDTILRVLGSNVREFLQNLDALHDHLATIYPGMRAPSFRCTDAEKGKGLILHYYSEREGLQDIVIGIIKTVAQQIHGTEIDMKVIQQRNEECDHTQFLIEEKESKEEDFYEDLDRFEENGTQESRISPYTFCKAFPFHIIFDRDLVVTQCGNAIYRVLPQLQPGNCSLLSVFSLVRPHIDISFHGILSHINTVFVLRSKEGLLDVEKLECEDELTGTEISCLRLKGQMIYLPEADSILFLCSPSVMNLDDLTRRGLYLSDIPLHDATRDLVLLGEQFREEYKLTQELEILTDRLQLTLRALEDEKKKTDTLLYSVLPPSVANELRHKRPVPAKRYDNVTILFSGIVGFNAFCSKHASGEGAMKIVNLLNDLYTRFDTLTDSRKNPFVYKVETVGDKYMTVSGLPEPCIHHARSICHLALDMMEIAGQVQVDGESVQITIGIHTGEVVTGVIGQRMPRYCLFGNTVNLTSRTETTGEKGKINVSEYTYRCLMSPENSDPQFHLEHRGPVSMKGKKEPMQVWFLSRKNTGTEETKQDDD
Experimental: The sGC cellular activator assay is performed in the presence and absence of 50% human serum (HS) using Chinese hamster ovary cells that have been stably transfected to express the human soluble guanylate cyclase alpha 1 and beta 1 subunits (sGC). Cells are preincubated with 40 microM 1H-[1,2,4]oxadiazolo[4,3-a]quinoxalin-1-one (ODQ), an sGC inhibitor, for one h in buffer containing 0.1% bovine serum albumin and 3-isobutyl-1-methylxanthine (IBMX). Concentration response curves are prepared for test compounds in DMSO. An intermediate dilution of the compounds is performed in either buffer containing IBMX or type AB HS containing IBMX. Diluted compounds are added to cells and they are incubated at room temperature for thirty min. cGMP is measured using a CisBio homogeneous time resolved fluorescence kit and the EC50 is calculated for each compound.
Representative compounds of the present invention were tested for activity the above assay. Preferred compounds have an EC50 of <1,000 nM in the above assay and more preferred compounds have an EC50<200 nM.

[2] = human liver microsome (HLM) metabolic stability assay; assay type: in vitro ADME; conditions: human liver microsomes; % hepatic blood flow calculated from t1/2
Experimental: The 5 time point, high-throughput human liver microsome (HLM) metabolic stability assay is designed to determine in vitro compound metabolism. Compounds are incubated with HLMs at a concentration of 1 uM, at 37° C., for a total of 60 min. The percent of compound remaining at 5, 15, 30, and 60 min is used to calculate the t½ (min), CLint (mL/min/kg), CLh (mL/min/kg), and % Qh. The assay is based on a 96-well format and can accommodate up to 92 compounds per plate (n=1).
Using the 96-well multi-channel head, the Biomek FX, equipped with a Peltier heating block/shaker, is programmed to accomplish the following steps: • 1. Pipette 175 uL of 1.15 mg/mL microsomes into each of the 96 conical inserts (Analytical Sales and Products, catalog number 96PL05) that fit into the plate of the Peltier heating block/shaker (the incubation plate) • 2. Add 5 uL of compounds from the assay plate to the microsomes and shake the mixture at 600 rpm at 42.1° C. for 10 min (a setting of 42.1° C. on the Peltier is required for the samples to incubate at 37° C.) • 3. After 10 min, prompt the user to add the NADPH plate to the deck and add 20 uL from the NADPH plate to the incubation plate to start the reaction • 4. Add 215 uL of 100%, cold acetonitrile containing an internal standard(s) to a 0 minute, 5 minute, 15 minute, 30 minute, and 60 minute “quench” plate • 5. At 0 min, 5 min, 15 min, 30 min, and 60 min into the incubation, aspirate 12 uL from the incubation mixture and add it to the quench solution to stop the reaction • 6. Add 185 uL HPLC grade water to each well of the 0, 5, 15, 30 and 60 minute quench plates to dilute compounds to the appropriate concentration for the mass spectrometer
After all time points are collected, the quench plates are sealed with 96-well pierceable plate mats or heat sealing foil and centrifuged at 3000 rpm for 15 min to pellet the microsomes.
The plates are analyzed using LC/MS/MS with electron spray ionization (ESI) and the previously determined MRM transitions. The LC method includes the following parameters:
Using an Excel template in Activitybase, the peak areas corresponding to 5, 15, 30 and 60 min are compared to the peak area at 0 min to calculate the percent of remaining compound using the following equation: Percent compound remaining=(AUC at Time t min/AUC at Time 0 min)×100 where t=0, 5, 15, 30 or 60 min.
Time (min) is plotted against the natural logarithm (Ln) of the percent compound remaining to determine the slope. The slope is used to calculate t½ (min) using the equation, t½=0.693/slope.
Preferred compounds have % Qh values of less than 24.

SMILES	EC50 [1]	HLM (% Qh) [2]
Cc1cccc(-c2cccc(-n3ncc(C(=O)O)c3OC(C)C)n2)c1OCc1ccc2c(c1)CCN([C@H]1CCCOC1)C2 [Compound 115]	68 nM	25 % Qh
Cc1cccc(-c2cccc(-n3ncc(C(=O)O)c3OC(C)C)n2)c1OCc1ccc2c(c1C)CCN([C@H]1CCCOC1)C2 [Compound 117]	29 nM	25 % Qh
CCOc1c(C(=O)O)cnn1-c1cccc(-c2cccc(C)c2OCc2cc(C)c3c(c2)CN(C2CCOCC2)C3)n1 [Compound 118]	39 nM	<24 % Qh
CCOc1c(C(=O)O)cnn1-c1cccc(-c2cccc(C)c2OCc2ccc3c(c2C)CN(C2CCOCC2)C3)n1 [Compound 119]	57 nM	<24 % Qh
COc1c(C(=O)O)cnn1-c1cccc(-c2cccc(C)c2OCc2cc(C)c3c(c2C)CCN(C2CCOCC2)C3)n1 [Compound 120]	12 nM	<24 % Qh
COc1c(C(=O)O)cnn1-c1cccc(-c2cccc(C)c2OCc2cc3c(cc2C)CN(C2CCOCC2)CC3)n1 [Compound 121]	40 nM	<24 % Qh
COc1c(C(=O)O)cnn1-c1cccc(-c2cc(C)ccc2OCc2ccc3c(c2C)CCN(C2CCOCC2)C3)n1 [Compound 124]	47 nM	<24 % Qh
CCOc1c(C(=O)O)cnn1-c1cccc(-c2cccc(C)c2OCc2ccc3c(c2C)CCN([C@H]2CCOC2)C3)n1 [Compound 125]	27 nM	<24 % Qh
CCOc1c(C(=O)O)cnn1-c1cccc(-c2cccc(C)c2OCc2ccc3c(c2C)CCN([C@@H]2CCOC2)C3)n1 [Compound 126]	58 nM	<24 % Qh
CCOc1c(C(=O)O)cnn1-c1cccc(-c2cccc(C)c2OCc2ccc3c(c2C)CCN([C@@H]2CCCOC2)C3)n1 [Compound 128]	15 nM	<24 % Qh
CCOc1c(C(=O)O)cnn1-c1cccc(-c2cccc(C)c2OCc2ccc3c(c2C)CCN([C@H]2CCCOC2)C3)n1 [Compound 129]	17 nM	<24 % Qh
COc1c(C(=O)O)cnn1-c1cccc(-c2cccc(C)c2OCc2ccc3c(c2)OCCN(C2CCOCC2)C3)n1 [Compound 130]	21 nM	25 % Qh
CCOc1c(C(=O)O)cnn1-c1cccc(-c2cccc(C)c2OCc2ccc3c(c2)OCCN(C2CCOCC2)C3)n1 [Compound 131]	410 nM	28 % Qh
CCCOc1c(C(=O)O)cnn1-c1cccc(-c2cccc(C)c2OCc2ccc3c(c2C)CCN(C2CCOCC2)C3)n1 [Compound 133]	27 nM	<24 % Qh
Cc1cccc(-c2cccc(-n3ncc(C(=O)O)c3OCC(C)C)n2)c1OCc1ccc2c(c1C)CCN(C1CCOCC1)C2 [Compound 134]	46 nM	32 % Qh
CC[C@H](C)Oc1c(C(=O)O)cnn1-c1cccc(-c2cccc(C)c2OCc2ccc3c(c2C)CCN(C2CCCOC2)C3)n1 (stereo partly shown) [Compound 135]	54 nM	29 % Qh
CC[C@H](C)Oc1c(C(=O)O)cnn1-c1cccc(-c2cccc(C)c2OCc2ccc3c(c2C)CCN(C2CCOCC2)C3)n1 [Compound 136]	81 nM	<24 % Qh
CC[C@H](C)Oc1c(C(=O)O)cnn1-c1cccc(-c2cccc(C)c2OCc2ccc3c(c2C)CCN(C2CCOC2)C3)n1 (stereo partly shown) [Compound 137]	89 nM	<24 % Qh
COc1c(C(=O)O)cnn1-c1cccc(-c2cccc(C)c2OCc2ccc3c(c2C)CCN(C[C@@H]2COCCO2)C3)n1 [Compound 139]	8.4 nM	<24 % Qh
COc1c(C(=O)O)cnn1-c1cccc(-c2cccc(C)c2OCc2ccc3c(c2C)CCN([C@@H]2CCCOC2)C3)n1 [Compound 140]	15 nM	<24 % Qh
COc1c(C(=O)O)cnn1-c1cccc(-c2cccc(C)c2OCc2ccc3c(c2C)CCN([C@H]2CCCOC2)C3)n1 [Compound 141]	17 nM	<24 % Qh
COc1c(C(=O)O)cnn1-c1cccc(-c2cccc(C)c2OCc2ccc3c(c2C)CCN(C[C@H]2COCCO2)C3)n1 [Compound 142]	62 nM	<24 % Qh
COc1c(C(=O)O)cnn1-c1cccc(-c2cccc(C)c2OCc2cc3c(cc2C)CN(C2CCOCC2)C3)n1 [Compound 143]	160 nM	<24 % Qh
CC(C)Oc1c(C(=O)O)cnn1-c1cccc(-c2ccccc2OCc2ccc3c(c2)CCN(C2CCOCC2)C3)n1 [Compound 144]	460 nM	<24 % Qh
COc1c(C(=O)O)cnn1-c1cccc(-c2cccc(C)c2OCc2cc(C)c3c(c2C)CN(C2CCOCC2)C3)n1 [Compound 145]	13 nM	<24 % Qh
CCOc1c(C(=O)O)cnn1-c1cccc(-c2cccc(C)c2OCc2ccc3c(c2C)CCN(CC2CCCOC2)C3)n1 (stereo not shown) [Compound 146]	23 nM	<24 % Qh

Reference: US8906904B2, “Alkoxy pyrazoles as soluble guanylate cyclase activators” (Boehringer Ingelheim International GmbH, priority 2012, dated 2014)
